PMC8301452, “Targeting of Protein Kinase CK2 in Acute Myeloid Leukemia Cells Using the Clinical-Grade Synthetic-Peptide CIGB-300” (Biomedicines, 2021)
Bridge positions count the residues as written; N and C are the ends. Square brackets hold non-standard residues; d marks the D form. Peptide text beside a SMILES is read from it. βAla = NCCC(=O)O

Experiments:
CK2α catalytic subunit = biological target: T1, CK2α catalytic subunit (Homo sapiens, UniProt P68400); test: In vivo pull-down followed by immunodetection; type: binding; conditions: AML cells, immunoblot
T1 construct: endogenous in cells
Experimental: For in vivo pull-down assays, CIGB-300 with N-terminal biotin tag (CIGB-300-B) was added to AML cells at a final concentration of 40 µM and incubated for 30 min. Subsequently, cells were collected, washed, and lysed in hypotonic PBS solution (0.1×) containing 1 mM DTT (Sigma, St. Louis, MO, USA) and complete protease inhibitor (Roche, Basel, Switzerland) by eight freeze–thaw (liquid nitrogen/37 °C) cycles. Cellular lysates were cleared by centrifugation, and 300 µg of total protein was added to 30 µL of pre-equilibrated streptavidin–sepharose matrix (GE Healthcare, Chicago, IL, USA). Following 1 h at 4 °C, the matrix was collected by centrifugation and extensively washed with PBS solution (1×) containing 1 mM DTT. Proteins bound to streptavidin–sepharose matrix were digested with trypsin (Promega, Madison, WI, USA) during 16 h or eluted for western blot analysis. In parallel, untreated cells were subjected to the same experimental procedure to identify those proteins non-specifically bound to streptavidin–sepharose matrix.
Cells were lysed in RIPA buffer containing protease/phosphatase inhibitor (Thermo Fisher Scientific, Waltham, MA, USA), and equal amounts of protein were resolved in 12.5% SDS-PAGE [46]. […]

[1] = system: primary cells from AML patients' bone marrow samples; test: Annexin V/PI staining, flow cytometry; type: cell-based, Human; conditions: primary cells from the majority of AML patients' bone marrow samples; 40 µM, 48 h
Description: Bone marrow samples from five AML patients with high leukemia involvement were collected in accordance with the Declaration of Helsinki after informed consent and ethical approval of the Clinical Research Board from the Center for Genetic Engineering and Biotechnology (CIGB, Havana, Cuba) (Table S1). Mononuclear cells from bone marrow samples were isolated using Ficoll-Paque (GE Healthcare, Chicago, IL, USA) density gradient centrifugation. Cells were maintained under standard cell culture conditions.
Viability of AML cells was measured using FITC Annexin V Apoptosis Detection Kit I (BD Biosciences, San Jose, CA, USA). Briefly, cell lines were incubated with 40 µM CIGB-300 for 3 and 5 h, while primary cells were incubated during 48 h. Following incubation, cells were washed twice with cold PBS and resuspended in binding buffer (1×) at a final concentration of 1 × 10^6 cells/mL. Subsequently, 5 µL of FITC Annexin V and PI were added, and cell suspensions were incubated for 15 min at room temperature in the dark. Flow cytometric analysis of stained cells was performed in Partec CyFlow Space instrument (Sysmex Partec GmbH, Gorlitz, Germany), and FlowJo software (v7.6.1) (BD, Ashland, OR, USA) was used for data analysis and visualization.

NPM1 S125 = test: Western blot of CK2-mediated NPM1 phosphorylation; type: cell-based, Human; conditions: both AML cell lines (HL-60, OCI-AML3), 40 µM
Experimental: Cells were lysed in RIPA buffer containing protease/phosphatase inhibitor (Thermo Fisher Scientific, Waltham, MA, USA), and equal amounts of protein were resolved in 12.5% SDS-PAGE [46]. Next, proteins were transferred to a nitrocellulose membrane and immunoblotted with the following antibodies according to instructions from the manufacturer: NPM1, p-NPM1 (S125), and CK2α (Abcam, Cambridge, United Kingdom) and β-actin (Sigma, St. Louis, MO, USA). Detection was performed with peroxidase-conjugated anti-mouse or anti-rabbit IgG (Sigma, St. Louis, MO, USA), and signal was developed using SuperSignal West Pico Chemiluminescent Substrate (Thermo Fisher Scientific, Waltham, MA, USA).
Figure S2. CIGB-300 peptide impairs CK2-mediated phosphorylation of NPM1 in AML cells. Cells treated with
40 µM of CIGB-300 during the indicated times were analyzed by western blot using phospho-specific and total […]

[2] = system: HL-60 cells transduced with LV-pLG or LV-shRNA; test: PI staining cytotoxicity in NPM1 knock-down cells; type: cell-based, Human; conditions: 20 or 40 µM, 5 h, n = 3
Experimental: Cells were infected with HIV-based third-generation lentiviral particles according to experimental conditions previously described. […]. After virus production and subsequent titration, cells were infected by spinoculation in the presence of polybrene (8 µg/mL) and at 10× multiplicity of infection. On the next day, fresh medium was added, and the cells were allowed to recover for another 48 h. Finally, infected cells were analyzed by flow cytometry and Western blot for evaluation of GFP expression and NPM1 protein levels, respectively.
Figure 4 Lentiviral vector-mediated knock-down of NPM1 in AML cells: (A) Flow cytometry analysis of GFP expression in transduced HL-60 cells at day 7 post-infection. Percentage of GFP+ cells was determined on live-cell population (R1 gate in dot plots); (B) Immunoblots from HL-60 transduced cells showing NPM1 protein knock-down in LV-shRNA infected cells. Densitometry analysis values of NPM1 bands were normalized to β-actin and then to untransduced cells; (C) GFP expression levels and (D) viability of transduced HL-60 cells were followed by flow cytometry during three weeks post-infection; (E) Sensibility of transduced cells toward the cytotoxic effect of CIGB-300 was evaluated by PI staining. Cells were incubated with 20 or 40 µM of CIGB-300 for 5 h, stained with PI solution, and then analyzed by flow cytometry. […]

[3] = system: CK2 substrates in OCI-AML3 cells; test: Phosphoproteomic analysis; type: cell-based, Human; conditions: 40 µM, 30 min, three replicates
Experimental: (§1) Sample preparation, phosphopeptide enrichment, and nanoLC-MS/MS for phosphoproteomic analysis of AML cells treated or not with 40 µM CIGB-300 during 30 min were conducted as previously described. Briefly, three replicates from each condition were processed by multienzyme digestion filter-aided sample preparation (MED-FASP) with overnight lys-C and tryptic digestions and the phosphopeptides enriched by TiO2 chromatography. Phosphopeptides were later injected through an EASY-nLC 1200 system into a QExactive HF mass spectrometer (Thermo Scientific, USA) using a home-made column ([…], 20 cm length), and were separated with a gradient from 5% buffer B (0.1% formic acid in acetonitrile) up to 30% in 45 min, 30–60% in 5 min, and 60–95% in 5 min more.
(§2) Data processing and quantification were performed in MaxQuant software (v1.6.2.10) and Perseus computational platform (v1.6.2.2). Phosphopeptides dataset was filtered of reverse and potential contaminants hits, and only phosphosites with localization probability above 0.75 were retained for further analysis. Additionally, only those phosphopeptides represented in each group were considered, and differences in phosphosites occupancy higher than 25% were selected as significant changes. Enzyme–substrate relations were retrieved using post-translational modification resource iPTMnet and web-based tool KEA2 [48, 49]. In addition to well-documented substrates, we searched for candidate CK2 substrates based on the presence of the CK2 consensus sequence, the enzyme–substrate predictions retrieved from NetworKIN database, the dataset of high confidence CK2 substrates reported by Bian et al., and the phosphoproteins that interact with protein kinase CK2 according to the Metascape database.

[4] = system: CK2 substrates in HL-60 cells; test: Phosphoproteomic analysis; type: cell-based, Human; conditions: 40 µM, 30 min, three replicates
Experimental: as §1, §2

OCI-AML3 cells = test: Cell cycle analysis by PI staining and flow cytometry; type: cell-based, Human; conditions: 40 µM, 24 h
Experimental: (§3) For cell cycle analysis, AML cells were incubated with 40 µM CIGB-300 during 24 h. Following treatment with the peptide, cells were collected by centrifugation, washed with PBS, and fixed at 4 °C for 30 min with ice-cold 70% ethanol. After fixation, cells were treated with DNase-free RNase A (Sigma, St. Louis, MO, USA) and subsequently stained at 37 °C for 20 min with 50 µg/mL PI solution (Sigma, St. Louis, MO, USA). Stained cells were analyzed in the abovementioned Partec CyFlow Space flow cytometry, and FlowJo Software (v7.6.1) was used for data processing and visualization.

HL-60 cells [5] = test: as above; type: cell-based, Human; conditions: 40 µM, 24 h
Experimental: as §3

[6] = system: chronic and acute T-cell lymphocytic leukemia (CLL and T-ALL); conditions: read-out: IC50, estimated values; cited from earlier work
Experimental: In contrast with solid tumor cells, which display a heterogenous sensitivity profile, leukemia cells are more sensitive to CIGB-300 anti-proliferative effects. Indeed, in a panel containing human lung, cervix, prostate, and colon cancer cell lines, the IC50 values for CIGB-300 ranged between 20 and 300 µM [32], while in chronic and acute T-cell lymphocytic leukemia (CLL and T-ALL), the estimated values were all below 40 µM [34, 44].

HL-60 cells [7] = system: HL-60 cells; design: method as in PMID 24283803, PMID 33562780; conditions: cited from earlier work

T1 sequence (P68400 whole entry): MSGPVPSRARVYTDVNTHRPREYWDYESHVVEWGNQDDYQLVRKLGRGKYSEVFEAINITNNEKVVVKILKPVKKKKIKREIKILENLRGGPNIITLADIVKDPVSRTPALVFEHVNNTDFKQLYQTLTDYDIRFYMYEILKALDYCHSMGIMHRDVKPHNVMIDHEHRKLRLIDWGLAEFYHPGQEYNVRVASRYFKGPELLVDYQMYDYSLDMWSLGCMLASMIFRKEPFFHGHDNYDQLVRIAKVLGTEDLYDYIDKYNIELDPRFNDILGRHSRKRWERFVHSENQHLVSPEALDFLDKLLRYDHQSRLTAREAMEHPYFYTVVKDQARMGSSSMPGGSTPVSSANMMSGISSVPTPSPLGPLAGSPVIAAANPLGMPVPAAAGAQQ

## CSCC[C@@H]1NC(=O)[C@H](Cc2c[nH]c3ccccc23)NC(=O)[C@@H](NC(=O)CCNC(=O)[C@H](CCC(N)=O)NC(=O)[C@@H]2CCCN2C(=O)[C@@H]2CCCN2C(=O)[C@H](CCCNC(=N)N)NC(=O)[C@H](CCCNC(=N)N)NC(=O)[C@H](CCCNC(=N)N)NC(=O)[C@H](CCC(N)=O)NC(=O)[C@H](CCCNC(=N)N)NC(=O)[C@H](CCCNC(=N)N)NC(=O)[C@H](CCCCN)NC(=O)[C@H](CCCCN)NC(=O)[C@H](CCCNC(=N)N)NC(=O)CN)CSSC[C@@H](C(=O)O)NC(=O)[C@H]([C@@H](C)O)NC(=O)CNC(=O)[C@H](CC(C)C)NC(=O)[C@H](Cc2c[nH]cn2)NC(=O)[C@H](CCCNC(=N)N)NC(=O)[C@@H]2CCCN2C(=O)[C@H](CO)NC1=O [CIGB-300] (H-GRKKRRQRRRPPQ[βAla]CWMSPRHLGTC-OH; disulfide 15-25; N-terminus and C-terminus assumed)
CK2α catalytic subunit
  interaction with CK2α subunit: clear interaction
[1]
  effect on viability (Annexin V-FITC/PI): promoted apoptosis
NPM1 S125
  CK2-mediated phosphorylation at S125 residue of NPM1: inhibition of CK2-mediated phosphorylation
[2]
  sensibility toward cytotoxic effect, LV-shRNA (NPM1 knock-down roughly 85%) vs LV-pLG: no differential sensibility
[3]
  Occupancy Treated–Control, BCLAF1 S397 (Q9NYF8): −0.3056 ^1
  Occupancy Treated–Control, BRCA1 S1164 (P38398): −0.3932
  Occupancy Treated–Control, CEP170 S1112 (Q5SW79): −0.4366
  Occupancy Treated–Control, DKC1 S494 (O60832): −0.2948 ^1
  Occupancy Treated–Control, EIF5B S214 (O60841): −0.2868
  Occupancy Treated–Control, HNRNPC S220 (P07910): −0.4698
  Occupancy Treated–Control, HNRNPC S225 (P07910): −0.4597
  Occupancy Treated–Control, MCM2 S13 (P49736): −0.4061 ^2
  Occupancy Treated–Control, MCM2 S139 (P49736): −0.3422 ^2
  Occupancy Treated–Control, NAP1L4 S7 (Q99733): −0.2719
  Occupancy Treated–Control, NOP56 S520 (O00567): −0.3705
  Occupancy Treated–Control, SEPTIN2 S218 (Q15019): −0.4261 ^1, 2
  Occupancy Treated–Control, SRSF11 S433 (Q05519): −0.3794
  Occupancy Treated–Control, STT3B S499 (Q8TCJ2): −0.3445
  Occupancy Treated–Control, TOP2A S1247 (P11388): −0.3351
  Occupancy Treated–Control, TOP2B S1550 (Q02880): −0.2936
[4]
  Occupancy Treated–Control, ABCF1 S140 (Q8NE71): −0.2693 ^2
  Occupancy Treated–Control, AP3B1 S276 (O00203): −0.427
  Occupancy Treated–Control, BCLAF1 S397 (Q9NYF8): −0.2902 ^1
  Occupancy Treated–Control, C1orf52 S158 (Q8N6N3): −0.3645
  Occupancy Treated–Control, DDX24 S82 (Q9GZR7): −0.3284
  Occupancy Treated–Control, DKC1 S485 (O60832): −0.3777
  Occupancy Treated–Control, DKC1 S494 (O60832): −0.3312 ^1
  Occupancy Treated–Control, EIF3C S39 (Q99613): −0.2738 ^2
  Occupancy Treated–Control, EIF4G1 S1198 (Q04637): −0.276
  Occupancy Treated–Control, FKBP15 S346 (Q5T1M5): −0.25
  Occupancy Treated–Control, HIRIP3 S196 (Q9BW71): −0.2842
  Occupancy Treated–Control, HIRIP3 S199 (Q9BW71): −0.2649
  Occupancy Treated–Control, HMGA1 S44 (P17096): −0.3177
  Occupancy Treated–Control, LEMD3 S144 (Q9Y2U8): −0.3252
  Occupancy Treated–Control, LYN S13 (P07948): −0.3987
  Occupancy Treated–Control, M6PR S267 (P20645): −0.26
  Occupancy Treated–Control, MCM2 S41 (P49736): −0.421 ^2
  Occupancy Treated–Control, NAP1L4 S125 (Q99733): −0.3398
  Occupancy Treated–Control, PABPC1 T319 (P11940): −0.2931
  Occupancy Treated–Control, PAK2 T169 (Q13177): −0.2963
  Occupancy Treated–Control, PNN S381 (Q9H307): −0.2998
  Occupancy Treated–Control, SEPTIN2 S218 (Q15019): −0.2677 ^1, 2
  Occupancy Treated–Control, SRSF11 S464 (Q05519): −0.3301
  Occupancy Treated–Control, ST13 S75 (P50502): −0.2852
  Occupancy Treated–Control, STMN1 S63 (P16949): −0.3357 ^2
  Occupancy Treated–Control, THRAP3 S211 (Q9Y2W1): −0.2914
  Occupancy Treated–Control, TMPO S66 (P42166): −0.4836
  Occupancy Treated–Control, TMPO S67 (P42166): −0.4836
  Occupancy Treated–Control, TOP2A S1106 (P11388): −0.2854
  Occupancy Treated–Control, XRCC6 S520 (P12956): −0.3763
OCI-AML3 cells
  effect on cell cycle progression: no change in cell cycle distribution
HL-60 cells [5]
  effect on cell cycle progression: accumulation of HL-60 cells in S phase
[6]
  IC50: < 40 µM

## O=C(O)c1ccc2c(c1)nc(Nc1cccc(Cl)c1)c1ccncc12 [CX-4945]
HL-60 cells [7]
  response toward cytotoxic effect: refractoriness
